Source: patent US11253521B2, “3-hydroxy-quinazoline-2,4-dione derivatives and their use as nuclease modulators” (Ludwig Institute for Cancer Research Ltd, priority 2015, dated 2022)
pIC50: −log10 of the molar value.

target: recombinant full-length FEN-1 (Homo sapiens (Human), UniProt P39748); assay: Fluorogenic biochemical (enzymatic) assay, FEN-1; settings: 200 nM DNA flap substrate, 50 mM Tris pH 8.0, 10 mM MgCl2, 2-4 hours at 25° C. or 37° C., read-out: SMD FEN-1 IC50
Protocol: Fluorogenic biochemical assays used recombinant full-length FEN-1 or catalytic domains of Exo1, XPG or GEN1 and 200 nM of a DNA substrate (formed by annealing three oligonucleotides—quencher (5′-CACGTTGACTACCGCTCAATCCTGACGAACACATC-BHQ2), flap (5′-TAMRA-GA TGTCAAGCAGTCCTAACTTTGAGGCAGAGTCCGC) and template (5′-GC GGACTCTGCCTCAAGACGGTAGTCAACGTG-3′) (PMID: 21062821)) in 50 mM Tris pH 8.0, 10 mM MgCl2, 1 mM DTT, and 0.01% Tween-20. Inhibitors arrayed in dose response were added from DMSO stocks (using a V&P 384-pintool head) to the enzyme solution in low volume, black polystyrene 384-well plates (Corning #3677) 15 minutes prior to the addition of the DNA substrate. Reactions were allowed to proceed for 2-4 hours at 25° C. or 37° C. Fluorescence data (Excitation: 530 nm/10 nm bandwidth; Emission: 590 nm/20 nm bandwith) were measured with an Infinite M1000 plate reader (Tecan).

Sequence of recombinant full-length FEN-1 (P39748 whole entry, the tested form may be a part): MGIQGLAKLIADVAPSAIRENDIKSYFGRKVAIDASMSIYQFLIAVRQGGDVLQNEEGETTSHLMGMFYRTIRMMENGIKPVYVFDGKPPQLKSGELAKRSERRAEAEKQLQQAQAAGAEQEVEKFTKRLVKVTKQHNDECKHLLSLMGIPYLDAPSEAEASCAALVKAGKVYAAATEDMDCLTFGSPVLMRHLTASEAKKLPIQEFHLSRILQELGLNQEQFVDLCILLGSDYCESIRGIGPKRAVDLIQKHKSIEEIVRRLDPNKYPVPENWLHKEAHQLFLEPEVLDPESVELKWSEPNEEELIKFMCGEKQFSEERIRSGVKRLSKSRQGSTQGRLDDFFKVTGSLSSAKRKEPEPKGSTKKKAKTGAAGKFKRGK

SMILES | pIC50
O=c1[nH]c2c(S(=O)(=O)c3cccs3)cccc2c(=O)n1O [Compound 75] | 7.94
O=c1[nH]c2c(-c3ccccc3)cccc2c(=O)n1O [Compound 18] | 6.95
O=c1[nH]c2c(F)cccc2c(=O)n1O [Compound 36] | 7.38
O=c1[nH]c2c(S(=O)(=O)c3cccc(F)c3)ccc(Cl)c2c(=O)n1O [Compound 70] | 8.01
O=c1[nH]c2ncccc2c(=O)n1O [Compound 14] | 6.97
O=c1[nH]c2ccc(F)cc2c(=O)n1O [Compound 38] | 6.66
CNC(=O)Nc1cccc(S(=O)(=O)c2cccc3c(=O)n(O)c(=O)[nH]c23)c1 [Compound 59] | 7.85
O=c1[nH]c2nc(S(=O)(=O)c3ccccc3)ccc2c(=O)n1O [Compound 19] | 6.87
O=c1[nH]c2c(Cc3ccccc3)ccc(Cl)c2c(=O)n1O [Compound 28] | 7.11
Cc1cccc(S(=O)(=O)c2cc(F)cc3c(=O)n(O)c(=O)[nH]c23)c1 [Compound 53] | 7.86
Cc1cccc(S(=O)(=O)c2c(Cl)ccc3c(=O)n(O)c(=O)[nH]c23)c1 [Compound 52] | 6.86
O=c1[nH]c2cc(Cc3ccccc3)ccc2c(=O)n1O [Compound 27] | 7.01
Cc1cccc(S(=O)(=O)c2ccc(F)c3c(=O)n(O)c(=O)[nH]c23)c1 [Compound 67] | 7.75
O=c1[nH]c2ccccc2c(=O)n1O [Compound 12] | 6.62
COc1cc(OC)cc(S(=O)(=O)c2cccc3c(=O)n(O)c(=O)[nH]c23)c1 [Compound 65] | 7.77
COC(=O)Nc1cccc(S(=O)(=O)c2cccc3c(=O)n(O)c(=O)[nH]c23)c1 [Compound 58] | 7.89
O=c1[nH]c2cc(F)ccc2c(=O)n1O [Compound 37] | 6.77
O=c1[nH]c2cc(-c3ccccc3)ccc2c(=O)n1O [Compound 15] | 6.45
O=c1[nH]c2c(-c3ccccc3)ccc(Cl)c2c(=O)n1O [Compound 26] | 7.43
O=c1[nH]c2cc(S(=O)(=O)c3ccccc3)ccc2c(=O)n1O [Compound 22] | 7.10
O=c1[nH]c2c(S(=O)(=O)c3cccs3)ccc(Cl)c2c(=O)n1O [Compound 79] | 7.78
O=c1[nH]c2cccc(F)c2c(=O)n1O [Compound 39] | 7.26
O=c1[nH]c2c(S(=O)(=O)c3cccc(Nc4ncccn4)c3)cccc2c(=O)n1O [Compound 60] | 7.80
CC(=O)Nc1cc(NC(C)=O)cc(S(=O)(=O)c2cccc3c(=O)n(O)c(=O)[nH]c23)c1 [Compound 73] | 8.12

SMILES | pIC50
O=c1[nH]c2c(Cc3ccccc3)cccc2c(=O)n1O [Compound 24] | 7.27
Cc1cc(F)cc(S(=O)(=O)c2ccc(Cl)c3c(=O)n(O)c(=O)[nH]c23)c1 [Compound 77] | 8.07
COc1ccc(S(=O)(=O)c2ccccc2)c2[nH]c(=O)n(O)c(=O)c12 [Compound 78] | 8.18
O=c1[nH]c2cc(S(=O)(=O)Cc3ccccc3)ccc2c(=O)n1O [Compound 29] | 6.80
CN(C)c1cc(N(C)C)cc(S(=O)(=O)c2cccc3c(=O)n(O)c(=O)[nH]c23)c1 [Compound 81] | 7.74
Cn1c(=O)n(O)c(=O)c2cccnc21 [Compound 17] | 5.48
O=c1[nH]c2c(S(=O)(=O)c3ccccc3)ccc(Cl)c2c(=O)n1O [Compound 43] | 8.00
O=c1c2cccnc2n(-c2ccccc2)c(=O)n1O [Compound 20] | 5.55
O=c1[nH]c2nc(Cc3ccccc3)ccc2c(=O)n1O [Compound 23] | 7.96
Cc1cccc(S(=O)(=O)c2cc(Cl)cc3c(=O)n(O)c(=O)[nH]c23)c1 [Compound 44] | 7.96
O=c1[nH]c2c(S(=O)(=O)c3cc(F)cc(F)c3)ccc(Cl)c2c(=O)n1O [Compound 71] | 8.17
O=c1[nH]c2cc(S(=O)(=O)Cc3ccccc3)cnc2c(=O)n1O [Compound 25] | 5.78
Cc1cccc(S(=O)(=O)c2ccc(Cl)c3c(=O)n(O)c(=O)[nH]c23)c1 [Compound 48, 5-chloro-3-hydroxy-8-(m-tolylsulfonyl)quinazoline-2,4(1H,3H)-dione] | 8.03
O=c1[nH]c2c(S(=O)(=O)Cc3ccccc3)cccc2c(=O)n1O [Compound 30] | 6.89
O=c1[nH]c2c(S(=O)(=O)c3ccccc3)cc(F)cc2c(=O)n1O [Compound 40] | 7.81
Cc1cccc(S(=O)(=O)c2c(F)ccc3c(=O)n(O)c(=O)[nH]c23)c1 [Compound 51] | 7.72
O=c1[nH]c2cccc(Br)c2c(=O)n1O [Compound 35] | 7.71
O=c1[nH]c2nc(-c3ccccc3)ccc2c(=O)n1O [Compound 16] | 6.41
O=c1[nH]c2ccncc2c(=O)n1O [Compound 13] | 5.88
O=c1[nH]c2c(S(=O)(=O)c3ccccc3)c(F)ccc2c(=O)n1O [Compound 68] | 7.03
Cc1cc(Cl)cc(S(=O)(=O)c2ccc(Cl)c3c(=O)n(O)c(=O)[nH]c23)c1 [Compound 76] | 8.03
O=c1[nH]c2cccc(Cl)c2c(=O)n1O [Compound 11] | 7.68
COc1ccc(S(=O)(=O)c2cccc(C)c2)c2[nH]c(=O)n(O)c(=O)c12 [Compound 80] | 8.03

Second part, the molecule after the results:

pIC50 | SMILES
7.89 | O=c1[nH]c2c(S(=O)(=O)c3cc(F)cc(F)c3)cccc2c(=O)n1O [Compound 57]
7.78 | O=c1[nH]c2c(S(=O)(=O)c3cc(Br)cc(Br)c3)cccc2c(=O)n1O [Compound 61]
7.88 | O=c1[nH]c2c(S(=O)(=O)c3cccc(C(F)(F)F)c3)cccc2c(=O)n1O [Compound 41]
7.85 | O=c1[nH]c2c(S(=O)(=O)c3ccc(Br)cc3)cccc2c(=O)n1O [Compound 45]
7.58 | O=c1[nH]c2c(S(=O)(=O)c3cccc(Cl)c3)cccc2c(=O)n1O [Compound 34]
7.78 | CC(=O)Nc1cccc(S(=O)(=O)c2cccc3c(=O)n(O)c(=O)[nH]c23)c1 [Compound 55]
7.45 | Nc1cccc(S(=O)(=O)c2cccc3c(=O)n(O)c(=O)[nH]c23)c1 [Compound 49]
8.25 | O=c1[nH]c2c(S(=O)(=O)c3ccc4[nH]cnc4c3)cccc2c(=O)n1O [Compound 72]
7.84 | Cc1cccc(S(=O)(=O)c2cccc3c(=O)n(O)c(=O)[nH]c23)c1 [Compound 32]
7.62 | Cc1ccc(S(=O)(=O)c2cccc3c(=O)n(O)c(=O)[nH]c23)cc1 [Compound 31]
7.80 | O=c1[nH]c2c(S(=O)(=O)c3cccc(O)c3)cccc2c(=O)n1O [Compound 47]
7.94 | Cc1cc(C)cc(S(=O)(=O)c2cccc3c(=O)n(O)c(=O)[nH]c23)c1 [Compound 50]
7.74 | O=c1[nH]c2c(S(=O)(=O)c3cc(Cl)cc(Cl)c3)cccc2c(=O)n1O [Compound 54]
7.62 | O=c1[nH]c2c(S(=O)(=O)c3ccccc3)cccc2c(=O)n1O [Compound 21]
7.89 | O=c1[nH]c2c(S(=O)(=O)c3cccc(Br)c3)cccc2c(=O)n1O [Compound 46]
7.54 | O=c1[nH]c2c(S(=O)(=O)c3cccc(Nc4ccccn4)c3)cccc2c(=O)n1O [Compound 62]
7.78 | COc1cccc(S(=O)(=O)c2cccc3c(=O)n(O)c(=O)[nH]c23)c1 [Compound 42]
8.07 | Nc1cc(N)cc(S(=O)(=O)c2cccc3c(=O)n(O)c(=O)[nH]c23)c1 [Compound 74]
8.03 | O=c1[nH]c2c(S(=O)(=O)c3cc(O)cc(O)c3)cccc2c(=O)n1O [Compound 66]
7.83 | CN(C)c1cccc(S(=O)(=O)c2cccc3c(=O)n(O)c(=O)[nH]c23)c1 [Compound 64]
7.77 | NC(=O)Nc1cccc(S(=O)(=O)c2cccc3c(=O)n(O)c(=O)[nH]c23)c1 [Compound 63]
7.58 | O=c1[nH]c2c(S(=O)(=O)c3ccc(Cl)cc3)cccc2c(=O)n1O [Compound 33]
7.83 | N#Cc1cccc(S(=O)(=O)c2cccc3c(=O)n(O)c(=O)[nH]c23)c1 [Compound 56]
8.00 | O=c1[nH]c2c(S(=O)(=O)c3cccc(F)c3)cccc2c(=O)n1O [Compound 69]
